In US20250019376A1, “CHROMANE AMIDINE MONOBACTAM ANTIBIOTICS” (priority 2021, published 2025):

Legend:
Conditions in all cases: lowest concentration inhibiting 95% of growth (OD600); with BLi relebactam 4 μg/mL; 22 hours, 35±2° C.
[1] = test system: Klebsiella pneumoniae expressing KPC-1 (CL6569); test: Growth inhibitory concentration (OD600), K. pneumoniae CL6569; format: cell-based
Protocol: (§1) The concentrations of compounds required to inhibit the growth of various strains of bacteria were determined in an assay that assessed bacterial growth by measuring optical density at 600 nm (OD600). The bacterial strains tested included the clinical strains Escherichia co/i expressing NDM-1 (CLB30016), Klebsiella pneumoniae expressing KPC-1 (CL6569), Acinetobacter baumannii expressing TEM-1, AmpC, and Oxa-24/40 (CL6188) and Pseudomonas aeruginosa expressing AmpC (CL5701). All compounds were tested in the presence of a f3 lactamase inhibitor (BLi, Relebactam) in 384-well microplates.
(§2) The clinical strains were stored as frozen single use stocks, thawed and diluted into 1.1× cation-adjusted Mueller-Hinton 11 broth to achieve approximately 2×10^5 CFU/mL. Test compounds were dissolved in DMSO and diluted 1:50 in the assay, resulting in a final concentration range of 100 μM to 0.098 μM. On the day of the assay, 1 μL of test compound was added to the plate followed by 4 μL of 50 μg/mL BLi in MOPS buffer and 45 μL of diluted bacteria. Plates were centrifuged at 1000 rpm for 30 seconds, shaken at approximately 800 rpm for 1 minute, and incubated at 35±2° C. for 22 hours. The concentration of BLi used in the assay was 4 μg/mL. At the end of the incubation, absorbance at 600 nm was determined using a spectrophotometer. Inhibition was quantitated by identifying the lowest concentration of test compound that was required to inhibit […] of the growth of the bacteria.

[2] = test system: Acinetobacter baumannii expressing TEM-1, AmpC, and Oxa-24/40 (CL6188); format: cell-based
Protocol: as §1, §2

[3] = test system: Pseudomonas aeruginosa expressing AmpC (CL5701); test: Growth inhibitory concentration (OD600), P. aeruginosa CL5701; format: cell-based
Protocol: as §1, §2

[4] = test system: Escherichia co/i expressing NDM-1 (CLB30016); test: Growth inhibitory concentration (OD600), E. coli CLB30016; format: cell-based, Escherichia coli
Protocol: as §1, §2

| Structure (SMILES) | KP_CL6569 MITC95 [1] [µM] | AB_CL6188 MITC95 [2] [µM] | PA_CL5701 MITC95 [3] [µM] | EC_CLB30016 MITC95 [4] [µM] |
| --- | --- | --- | --- | --- |
| CC1(C)[C@H](NC(=O)/C(=N\O[C@](C)(C(=O)O)[C@H]2CCc3cc(C(=N)N[C@H]4CC[C@H](N)CC4)ccc3O2)c2csc(N)n2)C(=O)N1OS(=O)(=O)O [Compound 32, (S)-2-((R)-6-(N-((1r,4R)-4-aminocyclohexyl)carbamimidoyl)chroman-2-yl)-2-((((Z)-1-(2-aminothiazol-4-yl)-2-(((S)-2,2-dimethyl-4-oxo-1-(sulfooxy)azetidin-3-yl)amino)-2-oxoethylidene)amino)oxy)propanoic acid] | 0.3906 | 3.125 | 1.563 | 3.125 |
| CC1(C)[C@H](NC(=O)/C(=N\O[C@](C)(C(=O)O)[C@H]2CCc3cc(C(=N)N[C@]4(C)CC[C@](N)(CO)CC4)ccc3O2)c2csc(N)n2)C(=O)N1OS(=O)(=O)O [Compound 135, (S)-2-((R)-6-(N-((1r,4R)-4-amino-4-(hydroxymethyl)-1-methylcyclohexyl)-carbamimidoyl)chroman-2-yl)-2-((((Z)-1-(2-aminothiazol-4-yl)-2-(((S)-2,2-dimethyl-4-oxo-1-(sulfooxy)azetidin-3-yl)amino)-2-oxoethylidene)amino)oxy)propanoic acid] | 0.7813 | 12.5 | 3.125 | – |
| COCc1c(C(=N)N[C@H]2C[C@@H](N)C2)ccc2c1CC[C@H]([C@](C)(O/N=C(\C(=O)N[C@@H]1C(=O)N(OS(=O)(=O)O)C1(C)C)c1csc(N)n1)C(=O)O)O2 [Compound 124, (S)-2-((R)-6-(N-((1s,3S)-3-aminocyclobutyl)carbamimidoyl)-5-(methoxymethyl)chroman-2-yl)-2-((((Z)-1-(2-aminothiazol-4-yl)-2-(((S)-2,2-dimethyl-4-oxo-1-(sulfooxy)azetidin-3-yl)amino)-2-oxoethylidene)amino)oxy)propanoic acid] | 1.563 | 12.5 | – | 50 |
| CC1(C)[C@H](NC(=O)/C(=N\O[C@](C)(C(=O)O)[C@H]2CCc3cc(C(=N)NC4CCC(N)(CO)CC4)ccc3O2)c2csc(N)n2)C(=O)N1OS(=O)(=O)O (stereo partly drawn) [Compound 70, (S)-2-((R)-6-(N-((1s,4S)-4-amino-4-(hydroxymethyl)cyclohexyl)carbamimidoyl)chroman-2-yl)-2-((((Z)-1-(2-aminothiazol-4-yl)-2-(((S)-2,2-dimethyl-4-oxo-1-(sulfooxy)azetidin-3-yl)amino)-2-oxoethylidene)amino)oxy)propanoic acid] | 0.293 | 4.688 | – | – |
| COC[C@]1(NC(=N)c2ccc3c(c2)CC[C@H]([C@](C)(O/N=C(\C(=O)N[C@@H]2C(=O)N(OS(=O)(=O)O)C2(C)C)c2csc(N)n2)C(=O)O)O3)CC[C@H](N)CC1 [Compound 127, (S)-2-((R)-6-(N-((1r,4R)-4-amino-1-(methoxymethyl)cyclohexyl)carbamimidoyl)chroman-2-yl)-2-((((Z)-1-(2-aminothiazol-4-yl)-2-(((S)-2,2-dimethyl-4-oxo-1-(sulfooxy)azetidin-3-yl)amino)-2-oxoethylidene)amino)oxy)propanoic acid] | 0.7813 | 12.5 | – | 6.25 |
| CC1(C)[C@H](NC(=O)/C(=N\O[C@](C)(C(=O)O)[C@H]2CCc3cc(C(=N)N[C@H]4C[C@@H](N)C4)ccc3O2)c2csc(N)n2)C(=O)N1OS(=O)(=O)O [Compound 7, (S)-2-((R)-6-(N-((1 s,3 S)-3-aminocyclobutyl)carbamimidoyl)chroman-2-yl)-2-((((Z)-1-(2-aminothiazol-4-yl)-2-(((S)-2,2-dimenthyl-4-oxo-1-(sulfooxy)azetidin-3-yl)amino)-2-oxoethylidene)amino)oxy)propanoic acid] | 0.3906 | 5.729 | – | 4.688 |
| COCC[C@]1(N)CC[C@H](NC(=N)c2ccc3c(c2)CC[C@H]([C@](C)(O/N=C(\C(=O)N[C@@H]2C(=O)N(OS(=O)(=O)O)C2(C)C)c2csc(N)n2)C(=O)O)O3)CC1 [Compound 64, (S)-2-((R)-6-(N-((1r,4R)-4-amino-4-(2-methoxyethyl)cyclohexyl)carbamimidoyl)chroman-2-yl)-2-((((Z)-1-(2-aminothiazol-4-yl)-2-(((S)-2,2-dimethyl-4-oxo-1-(sulfooxy)azetidin-3-yl)amino)-2-oxoethylidene)amino)oxy)propanoic acid] | 0.7813 | 6.25 | 3.125 | – |
| CC1(C)[C@H](NC(=O)/C(=N\O[C@](C)(C(=O)O)[C@H]2CCc3cc(C(=N)N[C@H]4C[C@@](N)(C[C@@H](O)CO)C4)ccc3O2)c2csc(N)n2)C(=O)N1OS(=O)(=O)O [Compound 95, (S)-2-((R)-6-(N-((1R,3R)-3-amino-3-((R)-2,3-dihydroxypropyl)cyclobutyl)carbamimidoyl)chroman-2-yl)-2-((((Z)-1-(2-aminothiazol-4-yl)-2-(((S)-2,2-dimethyl-4-oxo-1-(sulfooxy)azetidin-3-yl)amino)-2-oxoethylidene)amino)oxy)propanoic acid] | 0.3906 | 6.25 | – | 6.25 |
| CC1(C)[C@H](NC(=O)/C(=N\O[C@](C)(C(=O)O)[C@H]2CCc3cc(C(=N)N[C@H]4C[C@@]5(CCNC5)C4)ccc3O2)c2csc(N)n2)C(=O)N1OS(=O)(=O)O [Compound 23, (S)-2-((R)-6-(N-((2s,4R)-6-azaspiro[3.4]octan-2-yl)carbamimidoyl)chroman-2-yl)-2-((((Z)-1-(2-aminothiazol-4-yl)-2-(((S)-2,2-dimethyl-4-oxo-1-(sulfooxy)azetidin-3-yl)amino)-2-oxoethylidene)amino)oxy)propanoic acid] | 0.7813 | 6.25 | – | 6.25 |
| CC1(C)[C@H](NC(=O)/C(=N\O[C@](C)(C(=O)O)[C@H]2CCc3cc(C(=N)N[C@H]4C[C@H]5CC[C@@H](C4)N5)ccc3O2)c2csc(N)n2)C(=O)N1OS(=O)(=O)O [Compound 136, (S)-2-((R)-6-(N-((1R,3r,5S)-8-azabicyclo[3.2.1]octan-3-yl)carbamimidoyl)chroman-2-yl)-2-((((Z)-1-(2-aminothiazol-4-yl)-2-(((S)-2,2-dimethyl-4-oxo-1-(sulfooxy)azetidin-3-yl)amino)-2-oxoethylidene)amino)oxy)propanoic acid] | 0.7813 | 6.25 | 1.563 | – |
| CC1(C)[C@H](NC(=O)/C(=N\O[C@](C)(C(=O)O)[C@H]2CCc3cc(C(=N)NC4CC5(CC(N)C5)C4)ccc3O2)c2csc(N)n2)C(=O)N1OS(=O)(=O)O (stereo partly drawn) [Compound 61, (S)-2-((R)-6-(N-((2R,4r,6R)-6-aminospiro[3.3]heptan-2-yl)carbamimidoyl)chroman-2-yl)-2-((((Z)-1-(2-aminothiazol-4-yl)-2-(((S)-2,2-dimethyl-4-oxo-1-(sulfooxy)azetidin-3-yl)amino)-2-oxoethylidene)amino)oxy)propanoic acid] | 0.3906 | 6.25 | 1.563 | – |
| CC1(C)[C@H](NC(=O)/C(=N\O[C@](C)(C(=O)O)[C@H]2CCc3cc(C(=N)NC4CC(N)(C[C@H](O)CO)C4)ccc3O2)c2csc(N)n2)C(=O)N1OS(=O)(=O)O (stereo partly drawn) [Compound 94, (S)-2-((R)-6-(N-((1S,3R)-3-amino-3-((S)-2,3-dihydroxypropyl)cyclobutyl)carbamimidoyl)chroman-2-yl)-2-((((Z)-1-(2-aminothiazol-4-yl)-2-(((S)-2,2-dimethyl-4-oxo-1-(sulfooxy)azetidin-3-yl)amino)-2-oxoethylidene)amino)oxy)propanoic acid] | 0.3906 | 6.25 | – | 3.125 |
| COC[C@]1(NC(=N)c2ccc3c(c2)CC[C@H]([C@](C)(O/N=C(\C(=O)N[C@@H]2C(=O)N(OS(=O)(=O)O)C2(C)C)c2csc(N)n2)C(=O)O)O3)CC[C@@H](N)CC1 [Compound 126, (S)-2-((R)-6-(N-((1s,4S)-4-amino-1-(methoxymethyl)cyclohexyl)carbamimidoyl)chroman-2-yl)-2-((((Z)-1-(2-aminothiazol-4-yl)-2-(((S)-2,2-dimethyl-4-oxo-1-(sulfooxy)azetidin-3-yl)amino)-2-oxoethylidene)amino)oxy)propanoic acid] | 1.563 | 12.5 | – | 25 |
